Assay results reported in the supplement of paper PMC10307832.

Assays:
Assay in all cases: relative viability (nuclei count vs DMSO), 5 days (fraction); higher = more cells survive
Tivantinib + Tozasertib = compound: O=C1NC(=O)[C@@H](c2cn3c4c(cccc24)CCC3)[C@@H]1c1c[nH]c2ccccc12 [Tivantinib] + Cc1cc(Nc2cc(N3CCN(C)CC3)nc(Sc3ccc(NC(=O)C4CC4)cc3)n2)n[nH]1 [Tozasertib] (partner 0.1 µM)
Procedure, shortened: (§1)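 Each reported value is a median over duplicate plates. It expresses relative viability: treated-well nuclei count divided by vehicle-well nuclei count. Lung cancer cell lines in 1536-well plates were dosed by pin tool a day after seeding, alone with one drug or with a fixed anchor-drug dose plus five library-drug doses (not always all listed) in √10 steps, and nuclei were counted after 5 days.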

Tivantinib + Olaparib = compound: O=C1NC(=O)[C@@H](c2cn3c4c(cccc24)CCC3)[C@@H]1c1c[nH]c2ccccc12 [Tivantinib] + O=C(c1cc(Cc2n[nH]c(=O)c3ccccc23)ccc1F)N1CCN(C(=O)C2CC2)CC1 [Olaparib] (partner 8 µM)
Procedure, shortened: as §1

Crenolanib + Pictilisib = compound: CC1(COc2ccc3c(c2)ncn3-c2ccc3cccc(N4CCC(N)CC4)c3n2)COC1 [Crenolanib] + CS(=O)(=O)N1CCN(Cc2cc3nc(-c4cccc5[nH]ncc45)nc(N4CCOCC4)c3s2)CC1 [Pictilisib] (partner 1 µM)
Procedure, shortened: as §1

Crenolanib + Foretinib = compound: CC1(COc2ccc3c(c2)ncn3-c2ccc3cccc(N4CCC(N)CC4)c3n2)COC1 [Crenolanib] + COc1cc2c(Oc3ccc(NC(=O)C4(C(=O)Nc5ccc(F)cc5)CC4)cc3F)ccnc2cc1OCCCN1CCOCC1 [Foretinib] (partner 0.25 µM)
Procedure, shortened: as §1

| Cell Line | relative viability (Tivantinib + Tozasertib; first compound 0.01 µM) | relative viability (Tivantinib + Tozasertib; first compound 0.03162 µM) | relative viability (Tivantinib + Tozasertib; first compound 0.1 µM) | relative viability (Tivantinib + Tozasertib; first compound 0.3162 µM) | relative viability (Tivantinib + Olaparib; first compound 0.01 µM) | relative viability (Tivantinib + Olaparib; first compound 0.03162 µM) | relative viability (Tivantinib + Olaparib; first compound 0.1 µM) | relative viability (Tivantinib + Olaparib; first compound 0.3162 µM) | relative viability (Crenolanib + Pictilisib; first compound 0.01 µM) | relative viability (Crenolanib + Pictilisib; first compound 0.03162 µM) | relative viability (Crenolanib + Pictilisib; first compound 0.1 µM) | relative viability (Crenolanib + Pictilisib; first compound 0.3162 µM) | relative viability (Crenolanib + Pictilisib; first compound 1 µM) | relative viability (Crenolanib + Foretinib; first compound 0.01 µM) | relative viability (Crenolanib + Foretinib; first compound 0.03162 µM) | relative viability (Crenolanib + Foretinib; first compound 0.1 µM) | relative viability (Crenolanib + Foretinib; first compound 0.3162 µM) | relative viability (Crenolanib + Foretinib; first compound 1 µM) |
| --- | --- | --- | --- | --- | --- | --- | --- | --- | --- | --- | --- | --- | --- | --- | --- | --- | --- | --- |
| NCI-H1355 | 0.561 | 0.488 | 0.541 | 0.489 | 0.807 | 0.742 | 0.726 | 0.64 | 0.459 | 0.48 | 0.436 | 0.402 | 0.389 | 1.02 | 1 | 0.94 | 1.07 | 0.906 |
| NCI-H838 | 0.26 | 0.273 | 0.262 | 0.322 | 0.775 | 0.77 | 0.71 | 0.816 | 0.492 | 0.499 | 0.418 | 0.418 | 0.381 | 1.11 | 1.03 | 1.04 | 1.16 | 1.06 |
| NCI-H2126 | 0.91 | 0.785 | 0.831 | 0.538 | 0.94 | 0.933 | 0.881 | 0.813 | 0.504 | 0.509 | 0.51 | 0.47 | 0.476 | 1.24 | 1.37 | 0.985 | 1.41 | 1.23 |
| BEN | 0.529 | 0.549 | 0.574 | 0.537 | 1.05 | 1.01 | 0.961 | 0.857 | 0.664 | 0.574 | 0.51 | 0.522 | 0.609 | 0.84 | 0.44 | 0.659 | 0.819 | 0.656 |
| LCLC-97TM1 | 0.25 | 0.218 | 0.25 | 0.218 | 0.39 | 0.414 | 0.455 | 0.407 | 0.162 | 0.245 | 0.176 | 0.245 | 0.118 | 1.01 | 0.867 | 0.958 | 0.979 | 0.971 |
| EKVX | 0.388 | 0.346 | 0.421 | – | 0.812 | 0.893 | 0.834 | 0.296 | 0.466 | 0.491 | 0.364 | 0.487 | 0.442 | 1 | 0.71 | 0.802 | 0.796 | 0.757 |
| ABC-1 | 0.209 | 0.155 | 0.215 | 0.223 | 0.875 | 1.17 | 0.626 | 0.955 | 0.837 | 0.63 | 0.83 | 0.692 | 0.686 | 1.43 | 0.889 | 1.13 | 1.12 | 1.46 |
| NCI-H661 | 0.365 | 0.363 | 0.354 | 0.356 | 0.742 | 0.744 | 0.706 | 0.699 | 0.476 | 0.336 | 0.368 | 0.378 | 0.414 | 0.972 | 0.969 | 0.99 | 1.07 | 1.02 |
| NCI-H1651 | 0.617 | 0.678 | 0.672 | 0.71 | 0.207 | 0.187 | 0.194 | 0.195 | 0.568 | 0.511 | 0.52 | 0.548 | 0.502 | 0.884 | 0.967 | 0.883 | 0.94 | 0.787 |
| NCI-H2087 | 0.311 | 0.257 | 0.235 | 0.3 | 0.56 | 0.628 | 0.602 | 0.658 | 0.804 | 0.918 | 0.665 | 0.761 | 0.861 | 1.23 | 1.32 | 1.1 | 1.27 | 1.27 |
| NCI-H1793 | 0.427 | 0.329 | 0.353 | 0.222 | 0.982 | 0.761 | 0.819 | 0.45 | 0.302 | 0.315 | 0.322 | 0.312 | 0.385 | 0.669 | 0.895 | 0.64 | 0.608 | 0.689 |
| LCLC-103H | 0.426 | 0.493 | 0.474 | 0.374 | 0.713 | 0.802 | 0.722 | 0.778 | 0.64 | 0.58 | 0.596 | 0.58 | 0.565 | 0.947 | 0.88 | 0.874 | 0.826 | 0.622 |
| COR-L 105 | 0.32 | 0.414 | 0.397 | 0.383 | 0.739 | 0.665 | 0.729 | 0.585 | 0.455 | 0.363 | 0.341 | 0.514 | 0.411 | 0.972 | 1.18 | 0.848 | 1.32 | 1.05 |
| NCI-H1437 | 0.426 | 0.386 | 0.391 | 0.422 | 0.605 | 0.629 | 0.607 | 0.588 | 0.548 | 0.517 | 0.549 | 0.495 | 0.571 | 1.28 | 1.28 | 1.31 | 1.31 | 1.14 |
| HARA | 0.122 | 0.12 | 0.104 | 0.0992 | 1.02 | 0.49 | 0.735 | 0.732 | 0.327 | 0.369 | 0.283 | 0.289 | 0.353 | 0.956 | 0.979 | 0.84 | 0.912 | 0.911 |
